According to ChEMBL document CHEMBL1201862, “PubChem BioAssay data set” (2004):
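Results reflect a 48-hour exposure of cells in 96-well plates to compound at five concentrations. At the GI50, growth is halved.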 Active and inactive are the calls of the source. No stated cut-off is given here; in the data, active = GI50 up to about 1.1 µM and inactive = higher.

Columns and labels:
Assay in all cases: NCI tumour cell line growth inhibition, 48 h
[1] = test system: 786-0
[2] = test system: A498
[3] = test system: A549
[4] = test system: ACHN
[5] = test system: BT-549
[6] = test system: CAKI-1
[7] = test system: CCRF-CEM
[8] = test system: COLO 205
[9] = test system: DU-145
[10] = test system: EKVX
[11] = test system: HCC 2998
[12] = test system: HCT-116
[13] = test system: HCT-15
[14] = test system: HL-60
[15] = test system: HOP-62
[16] = test system: HOP-92
[17] = test system: HT-29
[18] = test system: Hs-578T
[19] = test system: IGROV-1
[20] = test system: K562
[21] = test system: KM12
[22] = test system: LOX IMVI
[23] = test system: M14
[24] = test system: MCF7
[25] = test system: MDA-MB-231
[26] = test system: MDA-MB-435
[27] = test system: MDA-N
[28] = test system: MOLT-4
[29] = test system: Malme-3M
[30] = test system: NCI-H226
[31] = test system: NCI-H23
[32] = test system: NCI-H460
[33] = test system: NCI-H522
[34] = test system: NCI/ADR-RES
[35] = test system: OVCAR-3
[36] = test system: OVCAR-4
[37] = test system: OVCAR-5
[38] = test system: OVCAR-8
[39] = test system: PC-3
[40] = test system: RPMI-8226
[41] = test system: RXF 393
[42] = test system: SF-268
[43] = test system: SF-295
[44] = test system: SF-539
[45] = test system: SK-MEL-28
[46] = test system: SK-MEL-2
[47] = test system: SK-MEL-5
[48] = test system: SK-OV-3
[49] = test system: SN12C
[50] = test system: SNB-19
[51] = test system: SNB-75
[52] = test system: SR
[53] = test system: SW-620
[54] = test system: T47D
[55] = test system: TK-10
[56] = test system: U-251
[57] = test system: UACC-257
[58] = test system: UACC-62
[59] = test system: UO-31

CC(=O)Oc1cccc2c1C(=O)c1c(OC(C)=O)cc(C)cc1C2=O
GI50 [1]: 20.4 µM (inactive)
GI50 [2]: 37.8 µM (inactive)
GI50 [3]: 47.5 µM (inactive)
GI50 [4]: 78.3 µM (inactive)
GI50 [5]: 61.1 µM (inactive)
GI50 [6]: > 100 µM (inactive)
GI50 [7]: 18.8 µM (inactive)
GI50 [8]: 58.2 µM (inactive)
GI50 [9]: 56.6 µM (inactive)
GI50 [10]: 24.4 µM (inactive)
GI50 [11]: 61.7 µM (inactive)
GI50 [12]: 33.6 µM (inactive)
GI50 [13]: 40.6 µM
GI50 [14]: 23.6 µM (inactive)
GI50 [15]: 32.4 µM (inactive)
GI50 [16]: 70.6 µM (inactive)
GI50 [17]: 39.6 µM (inactive)
GI50 [18]: 46.6 µM (inactive)
GI50 [19]: 25.7 µM (inactive)
GI50 [20]: 29 µM (inactive)
GI50 [21]: 39.5 µM (inactive)
GI50 [22]: 69 µM (inactive)
GI50 [23]: 81.7 µM (inactive)
GI50 [24]: 46 µM (inactive)
GI50 [25]: 43 µM (inactive)
GI50 [26]: 43.4 µM (inactive)
GI50 [27]: 58.5 µM (inactive)
GI50 [28]: 26.6 µM (inactive)
GI50 [29]: 17.1 µM (inactive)
GI50 [30]: > 100 µM (inactive)
GI50 [31]: 50.9 µM (inactive)
GI50 [32]: 26.1 µM (inactive)
GI50 [33]: 12.2 µM (inactive)
GI50 [34]: 21.1 µM (inactive)
GI50 [35]: 16.4 µM (inactive)
GI50 [36]: 27.7 µM (inactive)
GI50 [37]: > 100 µM (inactive)
GI50 [38]: 39.8 µM (inactive)
GI50 [39]: 26.1 µM (inactive)
GI50 [40]: 12.6 µM (inactive)
GI50 [41]: 28.2 µM (inactive)
GI50 [42]: 62.8 µM (inactive)
GI50 [43]: 29.1 µM (inactive)
GI50 [44]: 26.3 µM (inactive)
GI50 [45]: 27.9 µM (inactive)
GI50 [46]: 29 µM (inactive)
GI50 [47]: 29 µM (inactive)
GI50 [48]: 34 µM (inactive)
GI50 [49]: 51.2 µM (inactive)
GI50 [50]: 30.3 µM (inactive)
GI50 [51]: 36 µM (inactive)
GI50 [52]: 33 µM (inactive)
GI50 [53]: 37 µM (inactive)
GI50 [54]: 32.4 µM (inactive)
GI50 [55]: > 100 µM (inactive)
GI50 [56]: 30.2 µM (inactive)
GI50 [57]: > 100 µM (inactive)
GI50 [58]: 32.7 µM (inactive)

CC[C@@]1(O)C(=O)OCc2c1cc1n(c2=O)Cc2c-1nc1ccccc1c2/C=N\NC(=O)C(N)Cc1c[nH]c2ccccc12 (stereo partly specified)
GI50 [1]: 0.108 µM (active)
GI50 [2]: 0.499 µM (active)
GI50 [3]: 0.301 µM (active)
GI50 [4]: < 0.0188 µM (active)
GI50 [5]: 6.25 µM (inactive)
GI50 [6]: 0.0578 µM (active)
GI50 [7]: < 0.01 µM (active)
GI50 [8]: 18.2 µM (inactive)
GI50 [9]: 0.164 µM (active)
GI50 [10]: 5.78 µM (inactive)
GI50 [11]: 2.3 µM (inactive)
GI50 [12]: 0.392 µM (active)
GI50 [14]: 0.0638 µM (active)
GI50 [15]: 0.0556 µM (active)
GI50 [16]: 3.8 µM (inactive)
GI50 [17]: 3.74 µM (inactive)
GI50 [18]: 27.9 µM (inactive)
GI50 [19]: 2.86 µM (inactive)
GI50 [20]: 0.239 µM (active)
GI50 [21]: 2.84 µM (inactive)
GI50 [22]: 0.0675 µM (active)
GI50 [23]: 0.332 µM (active)
GI50 [24]: 0.0668 µM (active)
GI50 [25]: 33 µM (inactive)
GI50 [26]: 1.05 µM (active)
GI50 [27]: 2.02 µM (inactive)
GI50 [28]: < 0.01 µM (active)
GI50 [29]: 1.76 µM (inactive)
GI50 [30]: 1.11 µM (active)
GI50 [31]: 0.124 µM (active)
GI50 [32]: 0.104 µM (active)
GI50 [33]: 0.643 µM (active)
GI50 [34]: 0.809 µM (active)
GI50 [35]: 5.14 µM (inactive)
GI50 [36]: 3.08 µM (inactive)
GI50 [37]: 13.1 µM (inactive)
GI50 [38]: 0.555 µM (active)
GI50 [39]: 1.29 µM (inactive)
GI50 [40]: 0.78 µM (active)
GI50 [41]: 0.145 µM (active)
GI50 [42]: 0.0354 µM (active)
GI50 [43]: 0.0887 µM (active)
GI50 [44]: 0.101 µM (active)
GI50 [45]: 1.26 µM (inactive)
GI50 [46]: 5.93 µM (inactive)
GI50 [47]: 0.521 µM (active)
GI50 [48]: 0.49 µM (active)
GI50 [49]: 0.108 µM (active)
GI50 [50]: < 0.0198 µM (active)
GI50 [51]: 0.0745 µM (active)
GI50 [52]: < 0.01 µM (active)
GI50 [53]: 0.61 µM (active)
GI50 [54]: 0.0743 µM (active)
GI50 [55]: 20 µM (inactive)
GI50 [56]: 0.0502 µM (active)
GI50 [57]: 1.96 µM (inactive)
GI50 [58]: 0.0528 µM (active)
GI50 [59]: 0.173 µM (active)
